The results in this text go back to patent publication US20230406885A1, “CYCLIC PEPTIDES FOR TRAPPING INTERLEUKIN-1 BETA” (MERCK SHARP & DOHME LLC, priority 2022, published 2023).

Where a SMILES comes first, the peptide text is derived from it. [ ]: non-standard residue; d: D form. Trp(βS-Me,4-F) = C[C@@H](c1c[nH]c2cccc(F)c12)[C@H](N)C(=O)O; Bip(4'-COOH) = N[C@@H](Cc1ccc(-c2ccc(C(=O)O)cc2)cc1)C(=O)O; Phe(4-COOH) = N[C@@H](Cc1ccc(C(=O)O)cc1)C(=O)O; h3Pal(5-CN) = N#Cc1cncc(CC[C@H](N)C(=O)O)c1; Pro(4R-NH2) = N[C@H]1CN[C@H](C(=O)O)C1; Ala(4-THP) = N[C@@H](CC1CCOCC1)C(=O)O; hTyr = N[C@@H](CCc1ccc(O)cc1)C(=O)O; h4Pal = N[C@@H](CCc1ccncc1)C(=O)O; 4Pal = N[C@@H](Cc1ccncc1)C(=O)O; Aad = N[C@@H](CCCC(=O)O)C(=O)O; hLys = NCCCCC[C@H](N)C(=O)O; dDab = NCC[C@@H](N)C(=O)O; dNMeA = CN[C@H](C)C(=O)O; Nva = CCC[C@H](N)C(=O)O

As a reminder, the IC50 is the concentration that gives 50% inhibition.

This test deals with T1, Recombinant human IL-1β (Homo sapiens, UniProt P01584).
T1 construct: purchased BioLegend 579404
T1 sequence (P01584 117-269): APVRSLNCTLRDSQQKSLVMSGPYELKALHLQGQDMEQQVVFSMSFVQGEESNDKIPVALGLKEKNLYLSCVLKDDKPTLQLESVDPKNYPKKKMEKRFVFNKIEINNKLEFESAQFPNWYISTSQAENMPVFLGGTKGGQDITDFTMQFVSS
Kind of test: IL-6 assay in MRC5 cells: inhibition of IL-1β induced IL-6 secretion (AlphaLISA). Type of test: cell-based. Particulars: inhibition of IL-1β induced IL-6 secretion in MRC5 cells; IL-1β pre-incubated 1 hour with compound; read-out: MRC5 IC50. In short, it runs like this:
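IL-1β at 2×EC80 in seeding medium (EMEM, 0.025% BSA) preincubated 1 h at ambient temperature with compound, then 3000 MRC5 cells/well added and incubated overnight at 37 °C, 5% CO2. IL-6 in conditioned medium quantified by AlphaLISA; IC50 from 4-parameter logistic fit.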
For orientation: Bead proximity is the source of the signal in Alpha formats.
On to `CC(C)C[C@@H]1NC(=O)[C@H](Cc2ccncc2)NC(=O)[C@H](Cc2ccc(-c3ccc(C(=O)O)cc3)cc2)NC(=O)CNC(=O)[C@@H](C)N(C)C(=O)[C@H](CC(=O)O)NC(=O)[C@H]([C@@H](C)c2c[nH]c3cccc(F)c23)NC(=O)[C@@H]2C[C@@H](N)CN2C(=O)CNC(=O)[C@H](Cc2ccc(C(=O)O)cc2)NC(=O)[C@H](Cc2c[nH]c3ccccc23)NC(=O)[C@H](Cc2ccc(-c3ccc(C(=O)O)cc3)cc2)NC(=O)[C@H](CCc2ccc(O)cc2)NC(=O)[C@@H](C)NC1=O` [Example 59] (cyclo([Bip(4'-COOH)]W[Phe(4-COOH)]G[Pro(4R-NH2)][Trp(βS-Me,4-F)]D[dNMeA]G[Bip(4'-COOH)][4Pal]L[dA][hTyr])), for which the IC50 was 0.0362 nM.
For the molecule `CC(C)C[C@@H]1NC(=O)[C@H](Cc2ccccc2)NC(=O)[C@H](Cc2ccc(-c3ccc(C(=O)O)cc3)cc2)NC(=O)CNC(=O)[C@@H](C)N(C)C(=O)[C@H](CC(=O)O)NC(=O)[C@H]([C@@H](C)c2c[nH]c3cccc(F)c23)NC(=O)[C@@H]2C[C@@H](N)CN2C(=O)CNC(=O)[C@H](Cc2ccc(C(=O)O)cc2)NC(=O)[C@H](Cc2c[nH]c3ccccc23)NC(=O)[C@H](Cc2ccc(-c3ccc(C(=O)O)cc3)cc2)NC(=O)[C@H](CCc2ccc(O)cc2)NC(=O)[C@@H](C)NC1=O` [Example 60] (cyclo([Bip(4'-COOH)]W[Phe(4-COOH)]G[Pro(4R-NH2)][Trp(βS-Me,4-F)]D[dNMeA]G[Bip(4'-COOH)]FL[dA][hTyr])), the IC50 stood at 0.0689 nM.
In the case of `CC(C)C[C@@H]1NC(=O)[C@H](CCc2ccncc2)NC(=O)[C@H](Cc2ccc(-c3ccc(C(=O)O)cc3)cc2)NC(=O)CNC(=O)[C@@H](C)N(C)C(=O)[C@H](CC(=O)O)NC(=O)[C@H]([C@@H](C)c2c[nH]c3cccc(F)c23)NC(=O)[C@@H]2C[C@@H](N)CN2C(=O)CNC(=O)[C@H](Cc2ccc(C(=O)O)cc2)NC(=O)[C@H](Cc2c[nH]c3ccccc23)NC(=O)[C@H](Cc2ccc(-c3ccc(C(=O)O)cc3)cc2)NC(=O)[C@H](CCc2ccc(O)cc2)NC(=O)[C@@H](C)NC1=O` [Example 61] (cyclo([Bip(4'-COOH)]W[Phe(4-COOH)]G[Pro(4R-NH2)][Trp(βS-Me,4-F)]D[dNMeA]G[Bip(4'-COOH)][h4Pal]L[dA][hTyr])), the IC50 worked out at 0.312 nM.
To `CC(C)C[C@@H]1NC(=O)[C@H](CCCCCN)NC(=O)[C@H](Cc2ccc(-c3ccc(C(=O)O)cc3)cc2)NC(=O)CNC(=O)[C@@H](C)N(C)C(=O)[C@H](CC(=O)O)NC(=O)[C@H]([C@@H](C)c2c[nH]c3cccc(F)c23)NC(=O)[C@@H]2C[C@@H](N)CN2C(=O)CNC(=O)[C@H](Cc2ccc(C(=O)O)cc2)NC(=O)[C@H](Cc2c[nH]c3ccccc23)NC(=O)[C@H](Cc2ccc(-c3ccc(C(=O)O)cc3)cc2)NC(=O)[C@H](CCc2ccc(O)cc2)NC(=O)[C@@H](C)NC1=O` [Example 62] (cyclo([Bip(4'-COOH)]W[Phe(4-COOH)]G[Pro(4R-NH2)][Trp(βS-Me,4-F)]D[dNMeA]G[Bip(4'-COOH)][hLys]L[dA][hTyr])) belongs 0.283 nM; to `CC(C)C[C@@H]1NC(=O)[C@H](CCCC(N)=O)NC(=O)[C@H](Cc2ccc(-c3ccc(C(=O)O)cc3)cc2)NC(=O)CNC(=O)[C@@H](C)N(C)C(=O)[C@H](CC(=O)O)NC(=O)[C@H]([C@@H](C)c2c[nH]c3cccc(F)c23)NC(=O)[C@@H]2C[C@@H](N)CN2C(=O)CNC(=O)[C@H](Cc2ccc(C(=O)O)cc2)NC(=O)[C@H](Cc2c[nH]c3ccccc23)NC(=O)[C@H](Cc2ccc(-c3ccc(C(=O)O)cc3)cc2)NC(=O)[C@H](CCc2ccc(O)cc2)NC(=O)[C@@H](C)NC1=O` [Example 63] (cyclo([Bip(4'-COOH)]W[Phe(4-COOH)]G[Pro(4R-NH2)][Trp(βS-Me,4-F)]D[dNMeA]G[Bip(4'-COOH)][Aad](NH2)L[dA][hTyr])), 0.0629 nM; to `C[C@@H]1C(=O)NCC(=O)N[C@@H](Cc2ccc(-c3ccc(C(=O)O)cc3)cc2)C(=O)N[C@@H](CCCCN)C(=O)N[C@@H](CC2CCOCC2)C(=O)N[C@H](C)C(=O)N[C@@H](CCc2cncc(C#N)c2)C(=O)N[C@@H](Cc2ccc(-c3ccc(C(=O)O)cc3)cc2)C(=O)N[C@@H](Cc2c[nH]c3ccccc23)C(=O)N[C@@H](Cc2ccc(C(=O)O)cc2)C(=O)NCC(=O)N2C[C@H](N)C[C@H]2C(=O)N[C@@H]([C@@H](C)c2c[nH]c3cccc(F)c23)C(=O)N[C@@H](CC(=O)O)C(=O)N1C` [Example 64] (cyclo([Bip(4'-COOH)]W[Phe(4-COOH)]G[Pro(4R-NH2)][Trp(βS-Me,4-F)]D[dNMeA]G[Bip(4'-COOH)]K[Ala(4-THP)][dA][h3Pal(5-CN)])), 0.0182 nM.
On to `C[C@@H]1C(=O)NCC(=O)N[C@@H](Cc2ccc(-c3ccc(C(=O)O)cc3)cc2)C(=O)N[C@@H](CCCCN)C(=O)N[C@@H](CC2CCOCC2)C(=O)N[C@H](C)C(=O)N[C@@H](CCc2ccc(O)cc2)C(=O)N[C@@H](Cc2ccc(-c3ccc(C(=O)O)cc3)cc2)C(=O)N[C@@H](Cc2c[nH]c3ccccc23)C(=O)N[C@@H](Cc2ccc(C(=O)O)cc2)C(=O)NCC(=O)N2C[C@H](N)C[C@H]2C(=O)N[C@@H]([C@@H](C)c2c[nH]c3cccc(F)c23)C(=O)N[C@@H](CC(=O)O)C(=O)N1C` [Example 65] (cyclo([Bip(4'-COOH)]W[Phe(4-COOH)]G[Pro(4R-NH2)][Trp(βS-Me,4-F)]D[dNMeA]G[Bip(4'-COOH)]K[Ala(4-THP)][dA][hTyr])), for which the IC50 stood at 0.0158 nM.
For the molecule `CC(C)C[C@@H]1NC(=O)[C@H](CCCCN)NC(=O)[C@H](Cc2ccc(-c3ccc(C(=O)O)cc3)cc2)NC(=O)CNC(=O)[C@@H](C)N(C)C(=O)[C@H](CC(=O)O)NC(=O)[C@H]([C@@H](C)c2c[nH]c3cccc(F)c23)NC(=O)[C@@H]2C[C@@H](N)CN2C(=O)CNC(=O)[C@H](Cc2ccc(C(=O)O)cc2)NC(=O)[C@H](Cc2c[nH]c3ccccc23)NC(=O)[C@H](Cc2ccc(-c3ccc(C(=O)O)cc3)cc2)NC(=O)[C@H](CCc2cncc(C#N)c2)NC(=O)[C@@H](C)NC1=O` [Example 66] (cyclo([Bip(4'-COOH)]W[Phe(4-COOH)]G[Pro(4R-NH2)][Trp(βS-Me,4-F)]D[dNMeA]G[Bip(4'-COOH)]KL[dA][h3Pal(5-CN)])), the IC50 was found to be 0.0299 nM.
To `CC(C)C[C@@H]1NC(=O)[C@H](CCCCN)NC(=O)[C@H](Cc2ccc(-c3ccc(C(=O)O)cc3)cc2)NC(=O)CNC(=O)[C@@H](C)N(C)C(=O)[C@H](CC(=O)O)NC(=O)[C@H]([C@@H](C)c2c[nH]c3cccc(F)c23)NC(=O)[C@@H]2C[C@@H](N)CN2C(=O)CNC(=O)[C@H](Cc2ccc(C(=O)O)cc2)NC(=O)[C@H](Cc2c[nH]c3ccccc23)NC(=O)[C@H](Cc2ccc(-c3ccc(C(=O)O)cc3)cc2)NC(=O)[C@H](CCc2ccc(O)cc2)NC(=O)[C@@H](C)NC1=O` [Example 67] (cyclo([Bip(4'-COOH)]W[Phe(4-COOH)]G[Pro(4R-NH2)][Trp(βS-Me,4-F)]D[dNMeA]G[Bip(4'-COOH)]KL[dA][hTyr])) belongs 0.046 nM; to `CC(C)C[C@@H]1NC(=O)[C@H](CCCCN)NC(=O)[C@H](Cc2ccc(-c3ccc(C(=O)O)cc3)cc2)NC(=O)CNC(=O)[C@@H](C)N(C)C(=O)[C@H](CC(=O)O)NC(=O)[C@H]([C@@H](C)c2c[nH]c3cccc(F)c23)NC(=O)[C@@H]2C[C@@H](N)CN2C(=O)CNC(=O)[C@H](Cc2ccc(C(=O)O)cc2)NC(=O)[C@H](Cc2c[nH]c3ccccc23)NC(=O)[C@H](Cc2ccc(-c3ccc(C(=O)O)cc3)cc2)NC(=O)[C@H](CCc2ccc(O)cc2)NC(=O)[C@@H](CCN)NC1=O` [Example 68] (cyclo([Bip(4'-COOH)]W[Phe(4-COOH)]G[Pro(4R-NH2)][Trp(βS-Me,4-F)]D[dNMeA]G[Bip(4'-COOH)]KL[dDab][hTyr])), 0.296 nM.
As to `CC(C)C[C@@H]1NC(=O)[C@H](CCCCN)NC(=O)[C@H](Cc2ccc(-c3ccc(C(=O)O)cc3)cc2)NC(=O)CNC(=O)[C@@H](C)N(C)C(=O)[C@H](CC(=O)O)NC(=O)[C@H]([C@@H](C)c2c[nH]c3cccc(F)c23)NC(=O)[C@@H]2C[C@@H](N)CN2C(=O)CNC(=O)[C@H](Cc2ccc(C(=O)O)cc2)NC(=O)[C@H](Cc2c[nH]c3ccccc23)NC(=O)[C@H](Cc2ccc(-c3ccc(C(=O)O)cc3)cc2)NC(=O)[C@H](CCc2ccc(O)cc2)NC(=O)[C@@H](CO)NC1=O` [Example 69] (cyclo([Bip(4'-COOH)]W[Phe(4-COOH)]G[Pro(4R-NH2)][Trp(βS-Me,4-F)]D[dNMeA]G[Bip(4'-COOH)]KL[dS][hTyr])), the IC50 stood at 0.334 nM.
As to `CC(C)C[C@@H]1NC(=O)[C@H](CCCCN)NC(=O)[C@H](Cc2ccc(-c3ccc(C(=O)O)cc3)cc2)NC(=O)CNC(=O)[C@@H](C)N(C)C(=O)[C@H](CC(=O)O)NC(=O)[C@H]([C@@H](C)c2c[nH]c3cccc(F)c23)NC(=O)[C@@H]2C[C@@H](N)CN2C(=O)CNC(=O)[C@H](Cc2ccc(C(=O)O)cc2)NC(=O)[C@H](Cc2c[nH]c3ccccc23)NC(=O)[C@H](Cc2ccc(-c3ccc(C(=O)O)cc3)cc2)NC(=O)[C@H](CCc2ccc(O)cc2)NC(=O)CNC1=O` [Example 70] (cyclo([Bip(4'-COOH)]W[Phe(4-COOH)]G[Pro(4R-NH2)][Trp(βS-Me,4-F)]D[dNMeA]G[Bip(4'-COOH)]KLG[hTyr])), the IC50 was found to be 0.0973 nM.
To `CCC[C@@H]1NC(=O)[C@H](CCCCN)NC(=O)[C@H](Cc2ccc(-c3ccc(C(=O)O)cc3)cc2)NC(=O)CNC(=O)[C@@H](C)N(C)C(=O)[C@H](CC(=O)O)NC(=O)[C@H]([C@@H](C)c2c[nH]c3cccc(F)c23)NC(=O)[C@@H]2C[C@@H](N)CN2C(=O)CNC(=O)[C@H](Cc2ccc(C(=O)O)cc2)NC(=O)[C@H](Cc2c[nH]c3ccccc23)NC(=O)[C@H](Cc2ccc(-c3ccc(C(=O)O)cc3)cc2)NC(=O)[C@H](CCc2ccc(O)cc2)NC(=O)[C@@H](C)NC1=O` [Example 71] (cyclo([Bip(4'-COOH)]W[Phe(4-COOH)]G[Pro(4R-NH2)][Trp(βS-Me,4-F)]D[dNMeA]G[Bip(4'-COOH)]K[Nva][dA][hTyr])) belongs 0.0926 nM.
